These results are taken from US7816349B2, “Substituted pyrrolidinones as inhibitors of 11-beta-hydroxysteroid dehydrogenase 1” (Eli Lilly and Company, priority 2006, dated 2010).

SMILES strings stand for the structures.

The target in assay [1] is T1, 11β-HSD1 in primary human aortic smooth muscle cells (AoSMC) (Homo sapiens, UniProt P28845).
T1 construct: containing 12 ng/mL hTNFα to induce expression of 11β-HSD1; endogenous in cells; host or cells: primary human aortic smooth muscle cells (AoSMC), induced with hTNFα
T1 sequence (P28845 whole entry): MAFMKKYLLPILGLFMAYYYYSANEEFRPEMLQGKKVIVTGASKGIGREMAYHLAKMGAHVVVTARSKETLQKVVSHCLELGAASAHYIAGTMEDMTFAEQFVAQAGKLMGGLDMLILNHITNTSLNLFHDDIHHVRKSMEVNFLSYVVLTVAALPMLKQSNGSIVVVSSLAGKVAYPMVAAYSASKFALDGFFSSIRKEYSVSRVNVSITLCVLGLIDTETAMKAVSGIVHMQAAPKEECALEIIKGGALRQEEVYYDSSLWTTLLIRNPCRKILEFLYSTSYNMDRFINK
The experiment in a line: Human Aortic Smooth Muscle Cell Assay (cortisone to cortisol conversion). Format: cell-based. To be noted: AoSMC induced with hTNFα; cortisol measured after 16 hours with cortisone. How it is done:
Human Aortic Smooth Muscle Cell Assay
Primary human aortic smooth muscle cells (AoSMC) are cultured in 5% FBS growth medium to a passage number of 6, then pelleted by centrifugation and resuspended at a density of 9×10^4 cells/mL in 0.5% FBS assay medium containing 12 ng/mL hTNFα to induce expression of 11β-HSD1. Cells are seeded into 96-well tissue culture assay plates at 100 μL/well (9×10^3 cells/well) and incubated for 48 hours at 37° C., 5% CO2. Following induction, cells are incubated for 4 hours at 37° C., 5% CO2 in assay medium containing test compounds then treated with 10 μL/well of 10 μM cortisone solubilized in assay medium, and incubated for 16 hours at 37° C., 5% CO2. Medium from each well is transferred to a plate for subsequent analysis of cortisol using a competitive fluorescence resonance time resolved immunoassay. […] Higher levels of free cortisol result in diminishing energy transfer from the Europium-IgG to the APC-cortisol complex resulting in less APC fluorescence. Fluorescent intensities for Europium and APC are measured using a LJL Analyst AD. Europium and APC […] is measured using 360 nm excitation and 615 nm and 650 nm emission filters respectively. […] Fluorescent intensities measured for APC are modified by dividing by the Eu fluorescence (APC/Eu). […]

The test system of assay [2] is cortisone conversion to cortisol (11β-HSD1). The experiment in a line: Acute In Vivo Cortisone Conversion Assay. Also on record: species or system male C57BL/6 mice. To be noted: mice, oral dose 10 mg/kg, cortisone challenge s.c. 30 mg/kg, 16 hours post compound dose, serum cortisol. The procedure: Acute In Vivo Cortisone Conversion Assay
In general, compounds are dosed orally into mice, the mice are challenged with a subcutaneous injection of cortisone at a set timepoint after compound injection, and the blood of each animal is collected some time later. Separated serum is then isolated and analyzed for levels of cortisone and cortisol by LC-MS/MS, followed by calculation of mean cortisol and percent inhibition of each dosing group. Specifically, male C57BL/6 mice are obtained from Harlan Sprague Dawley at average weight of 25 grams. Exact weights are taken upon arrival and the mice randomized into groups of similar weights. Compounds are prepared in 1% w-w HEC, 0.25% w-w polysorbate 80, 0.05% w-w Dow Corning antifoam #1510-US at various doses based on assumed average weight of 25 grams. Compounds are dosed orally, 200 μl per animal, followed by a subcutaneous dose, 200 μl per animal, of 30 mg/kg cortisone at 1 to 24 hours post compound dose. At 10 minutes post cortisone challenge, each animal is euthanized for 1 minute in a CO2 chamber, followed by blood collection via cardiac puncture into serum separator tubes. Once fully clotted, tubes are spun at 2500×g, 4° C. for 15 minutes, the serum transferred to wells of 96-well plates (Corning Inc, Costar #4410, cluster tubes, 1.2 ml, polypropylene), and the plates are frozen at −20° C. until analysis by LC-MS/MS. […]

The target in assay [3] is recombinant human 11β-HSD type 1 enzyme (Homo sapiens, UniProt P28845). The experiment in a line: 11β-HSD Type 1 Enzyme Assay (NADPH fluorescence). The format is biochemical. To be noted: three hour incubation at room temperature, read-out: Human 11-βHSD1 IC50. How it is done: 11β-HSD Type 1 Enzyme Assay
Sequence of recombinant human 11β-HSD type 1 enzyme (P28845 whole entry): as above
Human 11β-HSD type 1 activity is measured by assaying NADPH production by fluorescence assay. Solid compounds are dissolved in DMSO to a concentration of 10 mM. Twenty microliters of each are then transferred to a column of a 96-well polypropylene Nunc plate where they are further diluted 50-fold followed by subsequent two-fold titration, ten times across the plate with additional DMSO using a Tecan Genesis 200 automated system. Plates are then transferred to a Tecan Freedom 200 system with an attached Tecan Temo 96-well head and an Ultra 384 plate reader. Reagents are supplied in 96-well polypropylene Nunc plates and are dispensed individually into black 96-well Molecular Devices High Efficiency assay plates (40 μL/well capacity) in the following fashion: 9 μL/well of substrate (2.22 mM NADP, 55.5 μM Cortisol, 10 mM Tris, 0.25% Prionex, 0.1% Triton X100), 3 μL/well of water to compound wells or 3 μL to control and standard wells, 6 μL/well recombinant human 11β-HSD type 1 enzyme, 2 μL/well of compound dilutions. For ultimate calculation of percent inhibition, a series of wells are added that represent assay minimum and maximum: one set containing substrate with 667 μM carbenoxolone (background), and another set containing substrate and enzyme without compound (maximum signal). Final DMSO concentration is 0.5% for all compounds, controls and standards. Plates are then placed on a shaker by the robotic arm of the Tecan for 15 seconds before being covered and stacked for a three hour incubation period at room temperature. Upon completion of this incubation, the Tecan robotic arm removes each plate individually from the stacker and places them in position for addition of 5 μL/well of a 250 μM carbenoxolone solution to stop the enzymatic reaction. Plates are then shaken once more for 15 seconds then placed into an Ultra 384 microplate reader (355EX/460EM) for detection of NADPH fluorescence.

In general, IC50 refers to the concentration needed to halve the response being measured. As for `O=C(c1ccc(-c2cc(Cl)c(C[C@@H]3CCN(C4CCC(F)(F)CC4)C3=O)c(Cl)c2)cc1)N1CCC(C(F)(F)F)CC1` [Example 3, (R)-3-[3,5-Dichloro-4′-(4-trifluoromethyl-piperidine-1-carbonyl)-biphenyl-4-ylmethyl]-1-(4,4-difluoro-cyclohexyl)-pyrrolidin-2-one], the values for the IC50 in assay [1] and in assay [3] were 55.1 nM and 686 nM, respectively. The “% Inhibition after 16 hours (dose of 10 (mg/kg))” value in assay [2] is 60.7%.

Consider `O=C(c1ccc(-c2cc(Cl)c(C[C@@H]3CCN(C4CCC(F)(F)CC4)C3=O)c(Cl)c2)cc1)N1CCS(=O)(=O)CC1` [Example 4, (R)-3-[3,5-Dichloro-4′-(1,1-dioxo-1lamda*6*-thiomorpholine-4-carbonyl)-biphenyl-4-ylmethyl]-1-(4,4-difluoro-cyclohexyl)-pyrrolidin-2-one], for which, in assay [2], the “% Inhibition after 16 hours (dose of 10 (mg/kg))” value was 50.2%. The IC50 in assay [3] came out at 382 nM.

As to `O=C(c1ccc(-c2cc(Cl)c(C[C@@H]3CCN([C@H]4CC[C@@H](F)CC4)C3=O)c(Cl)c2)cc1)N1CCC(C(F)(F)F)CC1` [Example 9, (R)-3-[3,5-Dichloro-4′-(4-trifluoromethyl-piperidine-1-carbonyl)-biphenyl-4-ylmethyl]-cis-1-(4-fluoro-cyclohexyl)-pyrrolidin-2-one], the IC50 in assay [1] was 5.5 nM; in assay [3], 584 nM.
